Key:
Format in all cases: in vivo, human
[1] = test system: osteoarthritis of the knee; assay: Second Phase 2 study: WOMAC stiffness subscale score
Excerpt: For subjects with bilateral knee pain, both knees will be treated, but the most symptomatic knee (ie, the most painful knee as measured by the Western Ontario and McMaster University Osteoarthritis Index [WOMAC® 3.1] pain subscale score at Screening) will be designated as the target knee for efficacy analyses. For subjects with unilateral knee pain, only the symptomatic (target) knee will be treated.
The VAS version of the WOMAC will be used for the Primary and Secondary Efficacy Endpoints. Efficacy endpoints will be assessed at Screening and Baseline (Day 1) and at the Week 2, Week 4, Week 8, and Week 12/EOS visits.
(§1) 4.9.2. Secondary Efficacy Endpoints: • 1. Change from Baseline in the WOMAC (VAS) pain subscale score for the target knee at 2, 8, and 12 weeks of treatment; • 2. Change from Baseline in the WOMAC (VAS) stiffness subscale scores for the target knee and WOMAC (VAS) functional ability subscale scores at 2, 4, 8, and 12 weeks of treatment; • 3. Change from Baseline in the overall WOMAC (VAS) score at 2, 4, 8, and 12 weeks of treatment; • 4. Subject's global assessment of disease status of the target knee at 2, 4, 8, and 12 weeks of treatment; • 5. Subject's global assessment of response to therapy of the target knee at 2, 4, 8, and 12 weeks of treatment; • 6. Amount of rescue medication (acetaminophen) consumed per day for target knee pain.
The Secondary Efficacy Endpoints, change from Baseline in the WOMAC subscale scores for pain, stiffness, and functional ability, and overall WOMAC score at 2, 4, 8, and 12 weeks of treatment, will be analyzed using the same methods as for the Primary Efficacy Endpoint.

[2] = test system: osteoarthritis of the knee; assay: Second Phase 2 study: Subject's pain Assessment Scores (SPA)
Description: Subjects will record the following information in a Daily Diary starting at Screening: the amount of knee pain in the target knee while walking during the preceding 24 hours (using a 100 mm visual analog scale [VAS]), the times and number of sprays for each administration of study medication, the times when the subject washes his/her knees and/or takes a shower, the number of tablets of rescue medication taken that day and the times taken, the reason for taking the rescue medication (e.g., knee pain, headache, low back pain), any other concomitant medications taken that day, and any AEs occurring that day.

[3] = test system: osteoarthritis of the knee; assay: Second Phase 2 study: Subject Global Impression of Change (SGIC); settings: Week 12
Excerpt: as §1

[4] = test system: osteoarthritis of the knee; assay: Second Phase 2 study: Investigator's assessment of response to therapy (IART); settings: Week 12
Excerpt: 4.9.3. Exploratory Efficacy Endpoints: • 1. Investigator's global assessment of response to therapy of the target knee at 2, 4, 8, and 12 weeks of treatment; • 2. Change from Baseline over time in overall WOMAC (VAS) score for the target knee after the treatment is stopped for 2 weeks.

[5] = Baseline, oral, 3 × 400 mg (n = 20), first 130 subjects
[6] = Week 12, oral, 3 × 400 mg (n = 20), first 130 subjects
[7] = all subjects, Oral Ibuprofen 3 × 400 mg, n = 48, Week 12
[8] = all subjects, Oral Ibuprofen 3 × 400 mg, n = 48 vs. Placebo n = 48
[9] = oral 3×400 mg, first 130 subjects
[10] = oral, 3 x 400 mg (n = 20), first 130 subjects
[11] = all subjects, Oral Ibuprofen 3 × 400 mg, n = 48

## CC(C)Cc1ccc(C(C)C(=O)O)cc1 (stereo not drawn) [Ibuprofen, 2-(4-isobutylphenyl)propionic acid, reference compound]
[1]; [5]
  WOMAC Stiffness Subscale Scores, Baseline (LS Mean): 56.4 mm
[1]; [6]
  WOMAC Stiffness Subscale Scores, % of improvement from Placebo: −10.3%
  WOMAC Stiffness Subscale Scores, Changes from Baseline (LS Mean): −20.6 mm
  WOMAC Stiffness Subscale Scores, Different from placebo (LS Mean): −6.6 mm
  WOMAC Stiffness Subscale Scores, Week 12 (LS Mean): 35.8 mm
[1]; [7]
  WOMAC Stiffness Subscale Scores, % of improvement from Placebo: −6.9%
  WOMAC Stiffness Subscale Scores, % of improvement from baseline: −39.3%
  WOMAC Stiffness Subscale Scores, Changes from Baseline (LS Mean): −20.3 mm
  WOMAC Stiffness Subscale Scores, Week 12 (LS Mean): 31.3 mm
[1]; [8]
  WOMAC Stiffness, difference vs. Placebo: −3.8 mm
[1]; [9]
  WOMAC stiffness, difference from placebo: −6.7 mm
[2]; [5]
  Subject’s pain Assessment Scores, Baseline (LS Mean): 71.2 mm
[2]; [6]
  Subject’s pain Assessment Scores, % of improvement from baseline: −36.2%
  Subject’s pain Assessment Scores, % of improvement from placebo: −7.0%
  Subject’s pain Assessment Scores, Changes from Baseline (LS Mean): −25.8 mm
  Subject’s pain Assessment Scores, Different from placebo (LS Mean): −6.9 mm
  Subject’s pain Assessment Scores, Week 12 (LS Mean): 45.4 mm
[2]; [7]
  Subject's pain Assessment Scores, % of improvement from Placebo: −8.4%
  Subject's pain Assessment Scores, % of improvement from baseline: −45.4%
  Subject's pain Assessment Scores, Changes from Baseline (LS Mean): −30.5 mm
  Subject's pain Assessment Scores, Week 12 (LS Mean): 36.6 mm
[2]; [8]
  SPA, difference vs. Placebo: −6.4 mm
[2]; [9]
  SPA, difference from placebo: 6.1 mm
[3]; [10]
  SGIC: Good and Very good: 55.0%
  SGIC: Poor and Very Poor: 10.0%
  SGIC: fair: 35.0%
[3]; [11]
  SGIC, Good and Very good: 47.9%
  SGIC, Poor and Very Poor: 8.3%
  SGIC, fair: 43.8%
[3]; oral 3×400 mg/day, first 130 subjects
  Subject's satisfaction rate (SGIC good and very good): 55%
[4]; [10]
  IART: Good and Very good: 50.0%
  IART: Poor and Very Poor: 25.0%
  IART: fair: 25.0%
[4]; [11]
  IART, Good and Very good: 47.9%
  IART, Poor and Very Poor: 8.3%
  IART, fair: 43.8%

Reference: patent US20240024273A1, “TOPICAL ADMINISTRATION OF 2-(DIETHYLAMINO)ETHYL 2-(4-ISOBUTYLPHENYL)PROPRIONATE FOR TREATMENT OF DISEASES” (TECHFIELDS PHARMA CO., LTD., priority 2020, published 2024)
